Measured values: PMC4744035, “In Vivo, In Vitro, and In Silico Characterization of Peptoids as Antimicrobial Agents” (PLoS ONE, 2016)
Converted amounts (≈) assume the structure as drawn. Like-named read-outs stand apart in the source and are kept apart here. Numbered stars: 1 amine (or outer) side, 2 acyl side, 3 side chain; on linkers, the order of the positions; unused ones are H or OH. Square brackets hold non-standard residues; d marks the D form. Peptide text beside a SMILES is read from it. X1 = CC(C)[C@H](C)N(CC(=O)[*:2])[*:1]; Nspe = C[C@H](NCC(=O)O)c1ccccc1; Nphe = O=C(O)CNCc1ccccc1; Nlys = NCCCCNCC(=O)O

Experiments:
NIH 3T3 cells = assay: Metabolic activity, MTS assay; assay type: cell-based, mouse
Protocol: NIH 3T3 mouse fibroblast cells were cultured in complete Dulbecco’s Modified Eagle’s Media. A peptoid solution plate (100 µL per well) was prepared by serial dilution of aqueous peptoid stock solutions in Hank’s balanced salt solution. A day-old cell monolayer was washed thoroughly with Hank’s balanced salt solution and replenished with 100 µL Hank’s balanced salt solution per well. Peptoid solutions were transferred onto the day-old cell monolayers, which contained approximately 5000 cells per well. […] The average of six replicate trials is reported.

[1] = tested on: K. pneumonia 63575 (ESBL); assay: microbe, parasite or virus in culture
Summary of the method: (§1)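 Agents were diluted serially at 10x in acetic acid/BSA, added to Mueller Hinton medium, then inoculated with bacteria at 2–7 x 10^5 CFU/mL. Plates were incubated overnight at 37°C and scored for growth.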

E. faecalis F43559 (VRE) = assay: microbe, parasite or virus in culture
Summary of the method: as §1

E. coli 63103 (ESBL) = assay: microbe, parasite or virus in culture
Summary of the method: as §1

[2] = tested on: P. aeruginosa LES400 (MDR); assay: microbe, parasite or virus in culture
Summary of the method: as §1

P. aeruginosa 9 (MDR) = assay: microbe, parasite or virus in culture
Summary of the method: as §1

[3] = tested on: E. cloacae 218R Class C β-lactamase; assay: microbe, parasite or virus in culture
Summary of the method: as §1

E. faecium mic80 (VRE) = assay: microbe, parasite or virus in culture
Summary of the method: as §1

[4] = tested on: K. pneumonia 61962 (ESBL); assay: microbe, parasite or virus in culture
Summary of the method: as §1

P. aeruginosa 213 (MDR) = assay: microbe, parasite or virus in culture
Summary of the method: as §1

E. faecalis ATCC29212 = assay: microbe, parasite or virus in culture
Summary of the method: as §1

P. maltophilia ATCC13637 = assay: microbe, parasite or virus in culture
Summary of the method: as §1

S. aureus C623 (MRSA) = assay: microbe, parasite or virus in culture
Summary of the method: as §1

E. faecalis W61950 (VRE) = assay: microbe, parasite or virus in culture
Summary of the method: as §1

S. aureus ATCC25923 = assay: microbe, parasite or virus in culture
Summary of the method: as §1

E. faecium T62764 (VRE) = assay: microbe, parasite or virus in culture
Summary of the method: as §1

[5] = tested on: P. aeruginosa H1030 (MDR); assay: microbe, parasite or virus in culture; conditions: P. aeruginosa H1030 (MDR)
Summary of the method: as §1

P. aeruginosa 198 (MDR) = assay: microbe, parasite or virus in culture
Summary of the method: as §1

[6] = tested on: P. aeruginosa H1027 (MDR); assay: microbe, parasite or virus in culture
Summary of the method: as §1

[7] = tested on: P. aeruginosa H103 (wild type); assay: microbe, parasite or virus in culture
Summary of the method: as §1

E. coli 64771 (ESBL) = assay: microbe, parasite or virus in culture
Summary of the method: as §1

B. subtilis ATCC 6633 = assay type: cell-based
Summary of the method: (§2)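 MICs determined by 2:1 serial broth microdilution in cation-adjusted Mueller-Hinton broth per CLSI M7-A6, using inoculum at 1 x 10^6 CFU/mL mixed 1:1 with peptoid solution. Three independent replicates, each with two parallel trials.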

E. coli ATCC 35218 = assay type: cell-based
Summary of the method: as §2

erythrocytes = assay: Hemolytic activity (HD10/HD50); assay type: cell-based
Source text: Table 1 Characteristics of antimicrobial peptoids, screened for activity against B. subtilis and E. coli bacterial strains. | column: HD10 / HD50

C[C@@H](c1ccccc1)N(CC(=O)N(CC(=O)N(CCCCN)CC(=O)N(CC(=O)N(CC(=O)N(CCCCN)CC(=O)N(CC(=O)N(CC(=O)N(CCCCN)CC(=O)N(CC(=O)N(CC(N)=O)Cc1ccccc1)Cc1ccccc1)Cc1ccccc1)Cc1ccccc1)Cc1ccccc1)Cc1ccccc1)Cc1ccccc1)C(=O)CNCCCCN [Peptoid 1ach-Nspe2, H-(NLys-Nspe-Npm)- (NLys-Npm-Npm)3-NH2] (H-[Nlys][Nspe][Nphe][Nlys][Nphe][Nphe][Nlys][Nphe][Nphe][Nlys][Nphe][Nphe]-NH2)
ID50 (inhibitory dose, metabolic activity) (NIH 3T3 cells): 11 µM | MIC [1]: 32 mg/L (≈ 18.6 µM) | MIC (E. faecalis F43559 (VRE); F43559 (VRE)): 16 mg/L (≈ 9.3 µM) | MIC (E. coli 63103 (ESBL); 63103 (ESBL)): 16 mg/L (≈ 9.3 µM) | MIC ([2]; LES400 (MDR)): 4 mg/L (≈ 2.32 µM) | MIC (P. aeruginosa 9 (MDR); 9 (MDR)): 64 mg/L (≈ 37.2 µM) | MIC ([3]; 218R Class C β-lactamase): 16 mg/L (≈ 9.3 µM) | MIC (E. faecium mic80 (VRE); mic80 (VRE)): 4 mg/L (≈ 2.32 µM) | MIC [4]: 64 mg/L (≈ 37.2 µM) | MIC (P. aeruginosa 213 (MDR); 213 (MDR)): 8 mg/L (≈ 4.65 µM) | MIC (E. faecalis ATCC29212; ATCC29212): 16 mg/L (≈ 9.3 µM) | MIC (P. maltophilia ATCC13637; ATCC13637): 2 mg/L (≈ 1.16 µM) | MIC (S. aureus C623 (MRSA); C623): 4 mg/L (≈ 2.32 µM) | MIC (E. faecalis W61950 (VRE); W61950 (VRE)): 32 mg/L (≈ 18.6 µM) | MIC (S. aureus ATCC25923; ATCC25923): 4 mg/L (≈ 2.32 µM) | MIC (E. faecium T62764 (VRE); T62764 (VRE)): 2 mg/L (≈ 1.16 µM) | MIC [5]: 32 mg/L (≈ 18.6 µM) | MIC (P. aeruginosa 198 (MDR); 198 (MDR)): 8 mg/L (≈ 4.65 µM) | MIC ([6]; H1027 (MDR)): 2 mg/L (≈ 1.16 µM) | MIC ([7]; H103 (wild type)): 4 mg/L (≈ 2.32 µM) | MIC (E. coli 64771 (ESBL); 64771 (ESBL)): 8 mg/L (≈ 4.65 µM) | MIC B. subtilis (B. subtilis ATCC 6633): 0.78 µM (≈ 1.34 µg/mL) | MIC E. coli (E. coli ATCC 35218): 6.3 µM (≈ 10.8 µg/mL) | HD10 (hemolytic activity) (erythrocytes): 160 | HD50 (hemolytic activity) (erythrocytes): > 200

C[C@H](c1ccccc1)N(CC(N)=O)C(=O)CN(C(=O)CN(CCCCN)C(=O)CN(C(=O)CN(C(=O)CN(CCCCN)C(=O)CN(C(=O)CN(C(=O)CN(CCCCN)C(=O)CN(C(=O)CN(C(=O)CNCCCCN)[C@@H](C)c1ccccc1)[C@H](C)c1ccccc1)[C@@H](C)c1ccccc1)[C@H](C)c1ccccc1)[C@@H](C)c1ccccc1)[C@H](C)c1ccccc1)[C@@H](C)c1ccccc1 [1-Nrpe3,6,9,12, H-(NLys-Nspe-Nrpe)4-NH2]
MIC ([1]; K. pneumonia 63575 (ESBL)): 16 mg/L (≈ 8.79 µM) | MIC (E. faecalis F43559 (VRE); E. faecalis F43559 (VRE)): 4 mg/L (≈ 2.2 µM) | MIC (E. coli 63103 (ESBL); E. coli 63103 (ESBL)): 4 mg/L (≈ 2.2 µM) | MIC ([2]; P. aeruginosa LES400 (MDR)): 4 mg/L (≈ 2.2 µM) | MIC (P. aeruginosa 9 (MDR); P. aeruginosa 9 (MDR)): 32 mg/L (≈ 17.6 µM) | MIC ([3]; E. cloacae 218R Class C β-lactamase): 4 mg/L (≈ 2.2 µM) | MIC (E. faecium mic80 (VRE); E. faecium mic80 (VRE)): 4 mg/L (≈ 2.2 µM) | MIC ([4]; K. pneumonia 61962 (ESBL)): 8 mg/L (≈ 4.4 µM) | MIC (P. aeruginosa 213 (MDR); P. aeruginosa 213 (MDR)): 8 mg/L (≈ 4.4 µM) | MIC (E. faecalis ATCC29212; E. faecalis ATCC29212): 4 mg/L (≈ 2.2 µM) | MIC (P. maltophilia ATCC13637; P. maltophilia ATCC13637): 2 mg/L (≈ 1.1 µM) | MIC (S. aureus C623 (MRSA); S. aureus C623 (MRSA)): 4 mg/L (≈ 2.2 µM) | MIC (E. faecalis W61950 (VRE); E. faecalis W61950 (VRE)): 8 mg/L (≈ 4.4 µM) | MIC (S. aureus ATCC25923; S. aureus ATCC25923): 4 mg/L (≈ 2.2 µM) | MIC (E. faecium T62764 (VRE); E. faecium T62764 (VRE)): 1 mg/L (≈ 0.55 µM) | MIC [5]: 8 mg/L (≈ 4.4 µM) | MIC (P. aeruginosa 198 (MDR); P. aeruginosa 198 (MDR)): 8 mg/L (≈ 4.4 µM) | MIC ([6]; P. aeruginosa H1027 (MDR)): 4 mg/L (≈ 2.2 µM) | MIC ([7]; P. aeruginosa H103 (wild type)): 8 mg/L (≈ 4.4 µM) | MIC (E. coli 64771 (ESBL); E. coli 64771 (ESBL)): 4 mg/L (≈ 2.2 µM) | MIC B. subtilis (B. subtilis ATCC 6633): 1.6 µM (≈ 2.91 µg/mL) | MIC E. coli (E. coli ATCC 35218): 6.3 µM (≈ 11.5 µg/mL) | HD10 (hemolytic activity) (erythrocytes; erythrocytes, first value of HD10 / HD50 cell): 16 | HD50 (hemolytic activity) (erythrocytes; erythrocytes, second value of HD10 / HD50 cell): 67

CC(C)[C@H](C)N(CC(=O)N(CC(=O)N(CCCCN)CC(=O)N(CC(=O)N(CC(=O)N(CCCCN)CC(=O)N(CC(=O)N(CC(=O)N(CCCCN)CC(=O)N(CC(=O)N(CC(N)=O)[C@@H](C)c1ccccc1)[C@@H](C)C(C)C)[C@@H](C)c1ccccc1)[C@@H](C)C(C)C)[C@@H](C)c1ccccc1)[C@@H](C)C(C)C)[C@@H](C)c1ccccc1)C(=O)CNCCCCN [1-Nsdp2.5.8.11, H-(NLys-Nsdp-Nspe)4-NH2] (H-[Nlys][X1][Nspe][Nlys][X1][Nspe][Nlys][X1][Nspe][Nlys][X1][Nspe]-NH2)
ID50 (inhibitory dose, metabolic activity) (NIH 3T3 cells): 20 µM | MIC [1]: 32 mg/L (≈ 19 µM) | MIC (E. faecalis F43559 (VRE); F43559 (VRE)): 32 mg/L (≈ 19 µM) | MIC (E. coli 63103 (ESBL); 63103 (ESBL)): 16 mg/L (≈ 9.51 µM) | MIC ([2]; LES400 (MDR)): 16 mg/L (≈ 9.51 µM) | MIC (P. aeruginosa 9 (MDR); 9 (MDR)): 256 mg/L (≈ 152 µM) | MIC ([3]; 218R Class C β-lactamase): 16 mg/L (≈ 9.51 µM) | MIC (E. faecium mic80 (VRE); mic80 (VRE)): 4 mg/L (≈ 2.38 µM) | MIC [4]: 64 mg/L (≈ 38 µM) | MIC (P. aeruginosa 213 (MDR); 213 (MDR)): 16 mg/L (≈ 9.51 µM) | MIC (E. faecalis ATCC29212; E. faecalis ATCC29212): 8 mg/L (≈ 4.75 µM) | MIC (P. maltophilia ATCC13637; ATCC13637): 1 mg/L (≈ 0.594 µM) | MIC (S. aureus C623 (MRSA); C623): 8 mg/L (≈ 4.75 µM) | MIC (E. faecalis W61950 (VRE); W61950 (VRE)): 32 mg/L (≈ 19 µM) | MIC (S. aureus ATCC25923; ATCC25923): 8 mg/L (≈ 4.75 µM) | MIC (E. faecium T62764 (VRE); T62764 (VRE)): 2 mg/L (≈ 1.19 µM) | MIC [5]: 16 mg/L (≈ 9.51 µM) | MIC (P. aeruginosa 198 (MDR); 198 (MDR)): 32 mg/L (≈ 19 µM) | MIC ([6]; H1027 (MDR)): 4 mg/L (≈ 2.38 µM) | MIC ([7]; H103 (wild type)): 8 mg/L (≈ 4.75 µM) | MIC (E. coli 64771 (ESBL); 64771 (ESBL)): 8 mg/L (≈ 4.75 µM) | MIC B. subtilis (B. subtilis ATCC 6633): 0.78 µM (≈ 1.31 µg/mL) | MIC E. coli (E. coli ATCC 35218): 12.5 µM (≈ 21 µg/mL) | HD10 (hemolytic activity) (erythrocytes): 111 | HD50 (hemolytic activity) (erythrocytes): > 200
